Laboratory results as given in ChEMBL document CHEMBL5518156, “Recent advances of targeting nicotinamide phosphoribosyltransferase (NAMPT) for cancer drug discovery” (Eur J Med Chem, 2023).

Assays:
[1] = biological target: Epidermal growth factor receptor (Homo sapiens, UniProt P00533, L858R); assay: Inhibition of EGFR L858R mutant (unknown origin)
[2] = biological target: Epidermal growth factor receptor (Homo sapiens, UniProt P00533, L861Q); assay: Inhibition of human EGFR L861Q mutant by discoverX kinome scan assay
[3] = biological target: von Hippel-Lindau disease tumor suppressor/Nicotinamide phosphoribosyltransferase (Homo sapiens, UniProt P43490+P40337); assay: Protac activity at VHL/NAMPT in human A2780 cells assessed as degradation of NAMPT using NAM as substrate pre-incubated for 30 mins followed by substrate addition measured for 1 hr in presence of ATP by luminescence based microplate reader analysis; assay type: cell-based
[4] = Half life in mouse plasma at 5 mg/kg, iv by LC-MS/MS analysis; assay type: ADME, organism-based
[5] = Cmax in mouse plasma at 30 mg/kg, ip measured upto 24 hrs by LC-MS/MS analysis; assay type: ADME, organism-based
[6] = tested on: A2780; assay: Antitumor activity against human A2780 cells xenografted in BALB/c nu/nu mouse assessed as tumor growth inhibition at 30 mg/kg, iv administered once daily for 2 weeks relative to control; assay type: functional; conditions: A2780, 336 h, read-out: TGI
[7] = tested on: A2780; assay: Antiproliferative activity against human A2780 cells assessed as reduction in cell viability measured for 72 hrs by MTT assay; assay type: functional, cell-based; conditions: A2780, 72 h
[8] = biological target: T1, Nicotinamide phosphoribosyltransferase (Homo sapiens, UniProt P43490); assay: Inhibition of NAMPT (unknown origin)
[9] = Oral bioavailability in Sprague-Dawley rat at 10 mg/kg by LC-MS analysis; assay type: ADME, organism-based; conditions: in vivo
[10] = Cmax in Sprague-Dawley rat at 10 mg/kg, po by LC-MS analysis; assay type: ADME, organism-based; conditions: in vivo
[11] = biological target: T1, Nicotinamide phosphoribosyltransferase; assay: Inhibition of N-terminal 6His-tagged human NAMPT (unknown origin) expressed in Escherichia coli Rosetta (DE) cells incubated for 1 hr by […]
[12] = biological target: Cytochrome P450 3A4 (Homo sapiens, UniProt P08684); assay: Inhibition of CYP3A4 (unknown origin); assay type: ADME
[13] = Oral bioavailability in Sprague-Dawley rat at 5 mg/kg; assay type: ADME, organism-based; conditions: in vivo
[14] = Half life in Sprague-Dawley rat at 5 mg/kg, po measured for 24 hrs by LC/MS/MS analysis; assay type: ADME, organism-based; conditions: in vivo
[15] = biological target: Cytochrome P450 2C9 (Homo sapiens, UniProt P11712); assay: Inhibition of CYP2C9 (unknown origin); assay type: ADME
[16] = tested on: HCT-116; assay: Antitumor activity against human HCT-116 cells xenografted in […] mouse assessed as tumor growth inhibition at 15 mg/kg, po administered for 3 days relative to control; assay type: functional; conditions: HCT-116, 72 h, time 3 day, read-out: TGI
[17] = tested on: SH-SY5Y; assay: Antiproliferative activity against human SH-SY5Y cells assessed as cell growth inhibition measured for 48 hrs by MTT assay; assay type: functional, cell-based
[18] = Clearance in Sprague-Dawley rat at 1 mg/kg, iv; assay type: ADME, organism-based; conditions: in vivo
[19] = tested on: MIA PaCa-2; assay: Antiproliferative activity against human MIA PaCa-2 cells assessed as reduction in cell viability incubated for 72 hrs by MTT assay; assay type: functional, cell-based; conditions: MIA PaCa-2, 72 h
[20] = tested on: A549; assay: Antitumor activity against human A549 cells xenografted in BALB/c nude mouse assessed as tumor growth inhibition at 10 mg/kg, ip administered once daily for 20 days relative to control; assay type: functional; conditions: A549, 480 h, time 20 day, read-out: TGI
[21] = tested on: A549; assay: Antitumor activity against human A549 cells xenografted in BALB/c nude mouse assessed as tumor growth inhibition at 20 mg/kg, ip administered once daily for 20 days relative to control; assay type: functional; conditions: A549, 480 h, time 20 day, read-out: TGI
[22] = Oral bioavailability in mouse at 2 mg/kg; assay type: ADME, organism-based; conditions: in vivo
[23] = biological target: Histone deacetylase 1 (Homo sapiens, UniProt Q13547); assay: Inhibition of human recombinant HDAC1 using Boc-Lys(Ac)-AMC as substrate preincubated for 30 mins followed by substrate addition measured for 1 hr by fluorescence based analysis
[24] = Clearance in cynomolgus monkey at 5 mg/kg, po; assay type: ADME, organism-based, Macaca fascicularis; conditions: in vivo
[25] = Clearance in Beagle dog at 5 mg/kg, po; assay type: ADME, organism-based, Canis lupus familiaris; conditions: in vivo
[26] = Clearance in ICR mouse at 5 mg/kg, po; assay type: ADME, organism-based; conditions: in vivo
[27] = Clearance in Sprague-Dawley rat at 5 mg/kg, po; assay type: ADME, organism-based; conditions: in vivo
[28] = Oral bioavailability in ICR mouse at 5 mg/kg by LC-MS/MS analysis; assay type: ADME, organism-based; conditions: in vivo
[29] = Oral bioavailability in Sprague-Dawley rat at 5 mg/kg by LC-MS/MS analysis; assay type: ADME, organism-based; conditions: in vivo
[30] = Oral bioavailability in Cynomolgus monkey at 5 mg/kg; assay type: ADME, organism-based, Macaca fascicularis; conditions: in vivo
[31] = Oral bioavailability in Beagle dog at 5 mg/kg; assay type: ADME, organism-based, Canis lupus familiaris; conditions: in vivo
[32] = tested on: COLO 205; assay: Antitumor activity against human COLO 205 cells xenografted in mouse model assessed as tumor growth inhibition at 15 mg/kg, po administered once daily for 7 days relative to control; assay type: functional; conditions: COLO 205, 168 h, time 7 day, read-out: TGI
[33] = Oral bioavailability in CD-1 mouse at 2 mg/kg; assay type: ADME, organism-based; conditions: in vivo
[34] = Cmax in CD-1 mouse at 2 mg/kg, iv; assay type: ADME, organism-based; conditions: in vivo
[35] = AUC in CD-1 mouse at 2 mg/kg, iv; assay type: ADME, organism-based; conditions: in vivo
[36] = Clearance in CD-1 mouse at 2 mg/kg, iv; assay type: ADME, organism-based; conditions: in vivo

T1 sequence (P43490 whole entry): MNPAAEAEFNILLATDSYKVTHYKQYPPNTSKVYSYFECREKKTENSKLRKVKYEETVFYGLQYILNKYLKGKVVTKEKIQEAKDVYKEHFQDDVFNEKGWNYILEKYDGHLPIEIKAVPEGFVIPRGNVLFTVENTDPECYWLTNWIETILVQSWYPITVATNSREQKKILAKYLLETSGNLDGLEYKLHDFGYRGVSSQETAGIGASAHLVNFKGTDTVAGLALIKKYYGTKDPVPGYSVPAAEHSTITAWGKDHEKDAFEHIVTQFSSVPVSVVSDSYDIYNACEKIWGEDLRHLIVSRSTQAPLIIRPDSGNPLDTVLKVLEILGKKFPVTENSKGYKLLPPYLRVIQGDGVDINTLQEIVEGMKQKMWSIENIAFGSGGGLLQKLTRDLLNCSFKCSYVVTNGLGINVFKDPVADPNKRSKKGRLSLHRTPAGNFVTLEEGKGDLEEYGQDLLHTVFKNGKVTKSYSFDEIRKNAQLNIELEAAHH
Histone deacetylase 1, sequence (Q13547 whole entry): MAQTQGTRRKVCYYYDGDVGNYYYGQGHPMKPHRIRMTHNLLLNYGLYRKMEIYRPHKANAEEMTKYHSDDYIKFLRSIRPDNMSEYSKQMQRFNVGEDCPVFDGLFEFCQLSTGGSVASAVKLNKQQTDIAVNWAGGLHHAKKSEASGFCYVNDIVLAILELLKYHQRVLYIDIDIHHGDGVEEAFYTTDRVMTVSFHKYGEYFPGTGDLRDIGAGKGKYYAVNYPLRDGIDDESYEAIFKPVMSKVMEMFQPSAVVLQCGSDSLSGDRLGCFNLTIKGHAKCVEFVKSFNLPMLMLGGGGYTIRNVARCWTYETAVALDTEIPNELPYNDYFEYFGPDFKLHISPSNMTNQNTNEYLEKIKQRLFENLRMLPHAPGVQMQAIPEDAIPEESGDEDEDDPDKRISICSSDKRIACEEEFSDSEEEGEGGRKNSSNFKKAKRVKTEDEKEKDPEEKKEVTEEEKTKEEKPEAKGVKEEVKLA
von Hippel-Lindau disease tumor suppressor/Nicotinamide phosphoribosyltransferase, sequence (P43490 whole entry): as the sequence (P43490 whole entry) above
von Hippel-Lindau disease tumor suppressor/Nicotinamide phosphoribosyltransferase, sequence (P40337 whole entry): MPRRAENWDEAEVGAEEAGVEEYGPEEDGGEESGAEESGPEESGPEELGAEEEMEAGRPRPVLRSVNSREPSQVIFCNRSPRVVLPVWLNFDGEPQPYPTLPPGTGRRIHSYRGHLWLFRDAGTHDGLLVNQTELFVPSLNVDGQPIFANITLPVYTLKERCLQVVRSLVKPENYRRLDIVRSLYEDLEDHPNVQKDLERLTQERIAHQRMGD
Epidermal growth factor receptor (Homo sapiens, UniProt P00533, L861Q), sequence (P00533 25-1210 L861Q limits assumed): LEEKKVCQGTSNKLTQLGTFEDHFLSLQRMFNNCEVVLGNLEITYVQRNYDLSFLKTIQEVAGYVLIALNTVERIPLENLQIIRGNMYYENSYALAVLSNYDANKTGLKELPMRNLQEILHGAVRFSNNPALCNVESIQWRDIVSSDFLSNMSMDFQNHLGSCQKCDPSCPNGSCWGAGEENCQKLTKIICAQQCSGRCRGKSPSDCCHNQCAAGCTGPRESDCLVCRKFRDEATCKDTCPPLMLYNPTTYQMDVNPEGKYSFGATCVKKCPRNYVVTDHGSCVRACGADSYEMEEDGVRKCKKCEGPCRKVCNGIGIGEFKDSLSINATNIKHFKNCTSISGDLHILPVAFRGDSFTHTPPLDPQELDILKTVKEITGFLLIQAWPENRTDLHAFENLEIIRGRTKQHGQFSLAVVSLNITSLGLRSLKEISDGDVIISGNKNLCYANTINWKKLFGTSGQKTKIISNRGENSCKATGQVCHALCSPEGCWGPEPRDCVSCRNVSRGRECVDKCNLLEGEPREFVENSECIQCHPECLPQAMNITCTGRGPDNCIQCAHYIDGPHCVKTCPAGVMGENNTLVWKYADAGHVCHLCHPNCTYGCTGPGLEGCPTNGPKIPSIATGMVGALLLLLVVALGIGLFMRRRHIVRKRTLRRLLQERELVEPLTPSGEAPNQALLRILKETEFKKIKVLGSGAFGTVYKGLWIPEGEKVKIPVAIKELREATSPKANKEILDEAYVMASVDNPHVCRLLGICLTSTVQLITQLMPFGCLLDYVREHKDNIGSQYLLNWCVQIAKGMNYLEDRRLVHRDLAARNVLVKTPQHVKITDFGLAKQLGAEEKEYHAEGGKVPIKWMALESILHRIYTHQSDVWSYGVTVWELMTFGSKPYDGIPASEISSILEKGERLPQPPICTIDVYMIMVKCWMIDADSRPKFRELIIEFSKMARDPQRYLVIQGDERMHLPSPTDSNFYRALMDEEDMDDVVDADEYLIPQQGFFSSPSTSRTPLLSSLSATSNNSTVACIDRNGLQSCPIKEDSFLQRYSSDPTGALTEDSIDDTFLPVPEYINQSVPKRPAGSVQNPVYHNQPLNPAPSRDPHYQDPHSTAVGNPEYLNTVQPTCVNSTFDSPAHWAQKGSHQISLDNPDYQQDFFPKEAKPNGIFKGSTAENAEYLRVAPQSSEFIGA
Cytochrome P450 3A4, sequence (P08684 whole entry): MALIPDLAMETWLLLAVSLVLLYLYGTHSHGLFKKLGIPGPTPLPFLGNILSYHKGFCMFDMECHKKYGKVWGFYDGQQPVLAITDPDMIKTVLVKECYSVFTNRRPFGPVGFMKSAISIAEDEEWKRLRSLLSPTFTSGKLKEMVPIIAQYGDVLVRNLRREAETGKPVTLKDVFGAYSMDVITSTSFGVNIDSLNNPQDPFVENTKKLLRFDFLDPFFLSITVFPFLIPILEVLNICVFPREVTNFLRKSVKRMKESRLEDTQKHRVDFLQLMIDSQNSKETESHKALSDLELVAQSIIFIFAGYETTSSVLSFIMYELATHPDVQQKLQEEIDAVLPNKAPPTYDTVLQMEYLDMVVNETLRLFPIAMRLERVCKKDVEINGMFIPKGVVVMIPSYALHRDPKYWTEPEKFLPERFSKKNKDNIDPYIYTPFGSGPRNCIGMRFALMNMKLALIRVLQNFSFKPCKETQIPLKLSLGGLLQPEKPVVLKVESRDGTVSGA
Cytochrome P450 2C9, sequence (P11712 whole entry): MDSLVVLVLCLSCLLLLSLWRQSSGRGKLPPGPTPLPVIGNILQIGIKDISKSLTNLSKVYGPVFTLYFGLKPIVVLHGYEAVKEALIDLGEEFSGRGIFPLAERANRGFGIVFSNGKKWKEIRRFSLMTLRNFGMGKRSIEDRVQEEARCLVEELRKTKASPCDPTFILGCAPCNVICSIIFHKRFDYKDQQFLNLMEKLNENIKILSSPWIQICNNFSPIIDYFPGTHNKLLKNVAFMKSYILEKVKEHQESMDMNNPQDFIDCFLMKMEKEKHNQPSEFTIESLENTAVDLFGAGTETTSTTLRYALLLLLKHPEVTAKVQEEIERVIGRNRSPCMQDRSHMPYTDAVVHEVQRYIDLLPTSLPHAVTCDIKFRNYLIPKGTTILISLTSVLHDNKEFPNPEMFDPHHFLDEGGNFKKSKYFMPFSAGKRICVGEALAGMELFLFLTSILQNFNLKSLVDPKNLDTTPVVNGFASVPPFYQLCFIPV
Epidermal growth factor receptor (Homo sapiens, UniProt P00533, L858R), sequence (P00533 25-1210 L858R limits assumed): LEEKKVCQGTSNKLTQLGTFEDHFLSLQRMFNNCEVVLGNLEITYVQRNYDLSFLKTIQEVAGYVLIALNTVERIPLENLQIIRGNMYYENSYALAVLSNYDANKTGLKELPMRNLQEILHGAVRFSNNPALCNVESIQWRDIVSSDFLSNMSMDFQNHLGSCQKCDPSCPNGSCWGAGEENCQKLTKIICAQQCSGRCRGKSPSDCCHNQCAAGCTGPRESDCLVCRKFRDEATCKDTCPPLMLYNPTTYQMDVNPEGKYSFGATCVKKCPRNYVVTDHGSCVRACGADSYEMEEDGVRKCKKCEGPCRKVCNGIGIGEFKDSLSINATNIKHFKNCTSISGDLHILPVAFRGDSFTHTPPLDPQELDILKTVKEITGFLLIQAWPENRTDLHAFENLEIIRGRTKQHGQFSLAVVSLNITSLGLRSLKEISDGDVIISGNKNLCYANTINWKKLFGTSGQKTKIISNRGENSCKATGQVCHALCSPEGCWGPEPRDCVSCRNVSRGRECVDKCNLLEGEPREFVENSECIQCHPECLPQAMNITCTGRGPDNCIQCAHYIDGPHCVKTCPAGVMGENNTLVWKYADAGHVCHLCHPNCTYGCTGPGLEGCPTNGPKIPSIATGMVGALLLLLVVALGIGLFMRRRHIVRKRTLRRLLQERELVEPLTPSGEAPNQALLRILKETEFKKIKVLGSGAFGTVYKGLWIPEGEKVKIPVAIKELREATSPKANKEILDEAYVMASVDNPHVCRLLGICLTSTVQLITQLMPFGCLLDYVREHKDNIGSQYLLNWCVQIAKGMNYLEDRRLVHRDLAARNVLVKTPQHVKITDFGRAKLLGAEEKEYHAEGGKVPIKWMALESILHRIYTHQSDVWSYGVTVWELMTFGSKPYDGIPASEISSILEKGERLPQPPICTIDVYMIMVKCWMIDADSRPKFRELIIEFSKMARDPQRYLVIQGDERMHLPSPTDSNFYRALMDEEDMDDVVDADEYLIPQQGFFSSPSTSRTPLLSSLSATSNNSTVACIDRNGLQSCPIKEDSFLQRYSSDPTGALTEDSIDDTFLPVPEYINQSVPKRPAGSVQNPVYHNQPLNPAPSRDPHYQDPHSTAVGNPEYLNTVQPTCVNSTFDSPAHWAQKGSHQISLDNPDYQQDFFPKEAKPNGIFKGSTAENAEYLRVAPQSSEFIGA

Molecule C#Cc1cccc(Nc2ncnc3cc(OC)c(OCCCCCCCN/C(=N\C#N)Nc4ccncc4)cc23)c1 has an IC50 [1] of 0.48 nM and an IC50 [2] of 0.49 nM.

Work on CCCn1c(=O)c(-c2ccc(C(=O)NCc3cccnc3)cc2)nc2ccc(NC(=O)CCCCCCCCCCC(=O)N[C@H](C(=O)N3C[C@H](O)C[C@H]3C(=O)N[C@@H](C)c3ccc(-c4scnc4C)cc3)C(C)(C)C)cc21 yielded a DC50 [3] of 8.4 nM, a half-life [4] of 9.89 h and a Cmax [5] of 166 nM. It also gave an inhibition in vivo at 30 mg/kg [6] of 73%.

For Cc1ccc(C(=O)N(CCCNC(=O)CCCCCCCCN2CCN(S(=O)(=O)c3ccc(NC(=S)NCc4cccnc4)cc3)CC2)[C@@H](c2nc3cc(Cl)ccc3c(=O)n2Cc2ccccc2)C(C)C)cc1, the IC50 [7] was 46 nM and the IC50 [8] was 490 nM.

Molecule O=C(/C=C/c1cccnc1)NCCCCC1CCN(C(=O)c2ccc(N3CCN(CCCCCCC#Cc4cccc5c4CN(C4CCC(=O)NC4=O)C5=O)CC3)cc2)CC1 (configuration not stated) has a bioavailability [9] of 23.2% and a Cmax [10] of 135 ng/mL.

With CC(=O)NCc1ncc2cc(COc3ccc(C(=O)NCc4cccnc4)cc3)n(CCC3CCCCC3)c2n1 the IC50 [11] was 4.3 nM.

In the case of CC(C)(O)CC(=O)N1CCC(c2ccc(NC(=O)N3Cc4ccccc4C3)cc2)CC1, the IC50 [12] is reported as > 20000 nM, the bioavailability [13] is reported as 100% and the half-life [14] is reported as 4.8 h. For the same molecule, the IC50 [15] was > 20000 nM and the inhibition in vivo at 15 mg/kg [16] was 90%.

With O=C(NCCCCCCCn1cc(-c2cccnc2)nn1)c1cccc(-n2cc(CN3CCC(O)CC3)nn2)c1 the IC50 [8] was 13.6 nM and the IC50 [17] was > 10000 nM.

Work on O=C(NC[C@@H]1CCOC1)c1ccc(NC(=O)N2Cc3ccccc3C2)cc1 yielded a clearance [18] of 4.33 mL/min/kg, a half-life [14] of 3 h and an inhibition in vivo at 15 mg/kg [16] of 78%.

With COC[C@H]1N[C@@H](c2ccc(NC(=O)c3ccc(CNS(=O)(=O)c4ccc(C(C)(C)C)cc4)cc3)cc2)[C@H](OC)[C@@H]1OC the IC50 [19] was 32000 nM.

For CN1CCN(Cc2cn(-c3cccc(C(=O)NCCCCCCCn4cc(-c5cccnc5)nn4)c3)nn2)CC1, the IC50 [8] was 41.8 nM and the IC50 [17] was > 10000 nM.

Cc1c(CNc2ccc(CCNC(=O)/C=C/c3cccnc3)cc2)oc2c1C(=O)C(=O)c1c-2ccc2c1CCCC2(C)C showed an inhibition in vivo at 10 mg/kg [20] of 44.2%, an inhibition in vivo at 20 mg/kg [21] of 52.1% and a bioavailability [22] of 5.8%.

Nc1ccccc1NC(=O)c1ccc(Cn2cc(-c3ccc(C(=O)NCc4cccnc4)cc3)nn2)cc1 gave an IC50 [23] of 55000 nM.

In the case of O=C(NCc1ccc(S(=O)(=O)c2cc(F)cc(F)c2)cc1)c1ccc2nccn2c1, the CL/F [24] is reported as 9.14 mL/min/kg, the CL/F [25] is reported as 4.62 mL/min/kg and the CL/F [26] is reported as 36.4 mL/min/kg. For the same molecule, the CL/F [27] was 19.3 mL/min/kg, the bioavailability [28] was 29.7% and the bioavailability [29] was 33.9%. The bioavailability [30] was 29.4%, the bioavailability [31] was 65.2% and the inhibition in vivo at 15 mg/kg [32] was 57%.

In the case of CC(C)(O)CS(=O)(=O)Nc1ccc2c(c1)CCN(C(=O)COc1cccnc1)C2, the IC50 [8] is reported as 3.2 nM, the bioavailability [33] is reported as 39% and the Cmax [34] is reported as 57 nM. For the same molecule, the AUC [35] was 0.195 µM·h and the clearance [36] was 159 mL/min/kg.
